Data on six molecules can be found in patent US10457679B2, “Imidazo[4,5-c]quinolin-2-one compounds and their use in treating cancer” (AstraZeneca AB, priority 2015, dated 2019).

What all share (type): cell-based
In assay [1] the target is T1, mTOR (Homo sapiens, UniProt P42345).
T1 construct: endogenous in cells; host or cells: MDA-MB-468 cells (ATCC HTB 132)
Kind of assay: Assay d) mTOR cellular potency (phospho-AKT Ser473 in MDA-MB-468 cells). The method, then: Assay d): mTOR Cellular Potency
This assay was used to measure mTOR inhibition in cells. The aim of the phospho-AKT cell based mechanism of action assay using the Acumen Explorer is to identify inhibitors of either PI3Kα or mTOR-Rictor (Rapamycin insensitive companion of mTOR). This is measured by any decrease in the phosphorylation of the Akt protein at Ser473 (AKT lies downstream of PI3Kα in the signal transduction pathway) in the MDA-MB-468 cells following treatment with compound. Method Details:
MDA-MB-468 cells (human breast adenocarcinoma #ATCC HTB 132) were seeded at 1500 cells/well in 40 μl of DMEM containing 10% FBS and 1% glutamine into Greiner 384 well black flat-bottomed plates. Cell plates were incubated for 18 h in a 37° C. incubator before dosing with compounds of Formula (I) in 100% DMSO using acoustic dispensing. Compounds were dosed in a 12 point concentration range into a randomised plate map. Control wells were generated either by dosing of 100% DMSO (max signal) or addition of a reference compound (a PI3K-β inhibitor) that completely eliminated the pAKT signal (min control). Compounds were then tested by one of two assay protocols A or B:
Plates were incubated at 37° C. for 2 h; cells were then fixed by the addition of 10 μl of a 3.7% formaldehyde solution. After 30 minutes the plates were washed with PBS using a Tecan PW384 plate washer. Wells were blocked and cells permeabilised with the addition of 40 μl of PBS containing 0.5% Tween20 and 1% Marvel™ (dried milk powder) and incubated for 60 minutes at r.t. The plates were washed with PBS containing 0.5% (v/v) Tween20 and 20 μl rabbit anti-phospho AKT Ser473 (Cell Signalling Technologies, #3787) in same PBS-Tween+1% Marvel™ was added and incubated overnight at 4° C.
Plates were washed 3 times with PBS+0.05% Tween 20 using a Tecan PW384. 20 μl of secondary antibody Alexa Fluor 488 anti-Rabbit (Molecular Probes, #A11008) diluted in PBS+0.05% Tween20 containing 1% Marvel™ was added to each well and incubated for 1 h at r.t. Plates were washed three times as before then 20 μl PBS added to each well and plates sealed with a black plate sealer.
The plates were read on an Acumen plate reader as soon as possible, measuring green fluorescence after excitation with 488 nm laser. Using this system IC50 values were generated and quality of plates was determined by control wells. Reference compounds were run each time to monitor assay performance.
The cell plates were then incubated for 2 h at 37° C. before being fixed by the addition of 20 μl 3.7% formaldehyde in PBS/A (1.2% final concentration), followed by a 30 minute room temperature incubation, and then a 2× wash with 150 μl PBS/A using a BioTek ELx406 platewasher. Cells were permeabilised and blocked with 20 μl of assay buffer (0.1% Triton X-100 in PBS/A+1% BSA) for 1 h at room temperature, and then washed 1× with 50 μl PBS/A. Primary phospho-AKT (Ser473) D9E XP® rabbit monoclonal antibody (#4060, Cell Signaling Technology) was diluted 1:200 in assay buffer, 20 μl added per well, and plates were incubated at 4° C. overnight. Cell plates were washed 3× with 200 μl PBS/T, then 20 μl 1:750 dilution in assay buffer of Alexa Fluor® 488 goat anti-rabbit IgG secondary antibody (#A11008, Molecular Probes, Life Technologies), with a 1:5000 dilution of Hoechst 33342, was added per well. Following a 1 h incubation at room temperature, plates were washed 3× with 200 μl PBS/T, and 40 μl PBS w/o Ca, Mg and Na Bicarb (Gibco #14190-094) was added per well.
Stained cell plates were covered with black seals, and then read on the Cell Insight imaging platform (Thermo Scientific), with a 10× objective. The primary channel (Hoechst blue fluorescence 405 nM, BGRFR_386_23) was used to Autofocus and to count number of events (this provided information about cytotoxicity of the compounds tested). The secondary channel (Green 488 nM, BGRFR_485_20) measured pAKT staining. […]

For assay [2], the target named is PI3K-α (Homo sapiens, UniProt P42336). The assay can be described thus: Assay c) PI3K cellular potency (phospho-Akt T308 ELISA in BT474 cells). To be noted: BT474 cells, 2 h, phospho-AKT T308; may be geometric mean of several tests; read-out: Assay c) PI3Kα Cell IC50. The text has this:
Assay c): PI3K Cellular Potency
This assay was used to measure PI3K-α inhibition in cells. PDK1 was identified as the upstream activation loop kinase of protein kinase B (Akt 1), which is essential for the activation of PKB. Activation of the lipid kinase phosphoinositide 3 kinase (PI3K) is critical for the activation of PKB by PDK1.
Following ligand stimulation of receptor tyrosine kinases, PI3K is activated, which converts PIP2 to PIP3, which is bound by the PH domain of PDK1 resulting in recruitment of PDK1 to the plasma membrane where it phosphorylates AKT at Thr308 in the activation loop.
The aim of this cell-based mode of action assay is to identify compounds that inhibit PDK activity or recruitment of PDK1 to membrane by inhibiting PI3K activity. Phosphorylation of phospho-Akt (T308) in BT474c cells following treatment with compounds for 2 h is a direct measure of PDK1 and indirect measure of PI3K activity.
BT474 cells (human breast ductal carcinoma, ATCC HTB-20) were seeded into black 384 well plates (Costar, #3712) at a density of 5600 cells/well in DMEM containing 10% FBS and 1% glutamine and allowed to adhere overnight.
The following morning compounds in 100% DMSO were added to assay plates by acoustic dispensing. After a 2 h incubation at 37° C. and 5% CO2, the medium was aspirated and the cells were lysed with a buffer containing 25 mM Tris, 3 mM EDTA, 3 mM EGTA, 50 mM sodium fluoride, 2 mM Sodium orthovanadate, 0.27M sucrose, 10 mM β-glycerophosphate, 5 mM sodium pyrophosphate, 0.5% Triton X-100 and complete protease inhibitor cocktail tablets (Roche #04 693 116 001, used 1 tab per 50 ml lysis buffer).
After 20 minutes, the cell lysates were transferred into ELISA plates (Greiner #781077) which had been pre-coated with an anti total-AKT antibody in PBS buffer and non-specific binding was blocked with 1% BSA in PBS containing 0.05% Tween 20. Plates were incubated over night at 4° C. The next day the plates were washed with PBS buffer containing 0.05% Tween 20 and further incubated with a mouse monoclonal anti-phospho AKT T308 for 2 h. Plates were washed again as above before addition of a horse anti-mouse-HRP conjugated secondary antibody. Following a 2 h incubation at r.t., plates were washed and QuantaBlu substrate working solution (Thermo Scientific #15169, prepared according to provider's instructions) was added to each well. The developed fluorescent product was stopped after 60 minutes by addition of Stop solution to the wells. Plates were read using a Tecan Safire plate reader using 325 nm excitation and 420 nm emission wavelengths respectively. Except where specified, reagents contained in the Path Scan Phospho AKT (Thr308) sandwich ELISA kit from Cell Signalling (#7144) were used in this ELISA assay.
On the technique in general: In an ELISA, binding on a coated surface is turned into a signal by an enzyme label.

Assay [3] concerns the target T2, ATR kinase (Homo sapiens, UniProt Q13535).
T2 construct: measuring a decrease in phosphorylation of Chk1 (Ser 345) in HT29 cells; endogenous in cells; host or cells: HT29 cells (ECACC #85061109)
Kind of assay: Assay b) ATR cellular potency (pChk1 Ser345 in HT29 cells after 4NQO). To be noted: HT29 cells, 4NQO, pChk1 Ser345; may be geometric mean of several tests; read-out: Assay b) ATR Cell IC50. The text has this:
Assay b): ATR Cellular Potency
ATR is a PI 3-kinase-related kinase which phosphorylates multiple substrates on serine or threonine residues in response to DNA damage during or replication blocks. Chk1, a downstream protein kinase of ATR, plays a key role in DNA damage checkpoint control. Activation of Chk1 involves phosphorylation of Ser317 and Ser345 (the latter regarded as the preferential target for phosphorylation/activation by ATR).
The following morning compound of Formula (I) in 100% DMSO were added to assay plates by acoustic dispensing. After 1 h incubation at 37° C. and 5% CO2. 40 nl of 3 mM 4NQO in 100% DMSO was added to all wells by acoustic dispensing, except minimum control wells which were left untreated with 4NQO to generate a null response control. Plates were returned to the incubator for a further 1 h. […] Then 20 μl of 0.1% Triton X100 in PBS was added and incubated for 10 minutes at r.t., to permeabalise cells. Then the plates were washed once with 50 μl/well PBS, using a Biotek EL405 plate washer.
After 2 h incubation at r.t., the plates were washed three times with 50 μl/well PBS, using a Biotek EL405 plate washer, and plates were then sealed with black plate seals until read. Plates were read using an ArrayScan VTI instrument, using an XF53 filter with 10× objective.

For assay [4], the target named is T3, ATM kinase (Homo sapiens, UniProt Q13315).
T3 construct: endogenous in cells; host or cells: HT29 cells (ECACC #85061109)
Kind of assay: Assay a) ATM cellular potency (pATM Ser1981 in X-ray irradiated HT29 cells). To be noted: HT29 cells, 1 h compound, X-ray ~600 cGy, pATM Ser1981; may be geometric mean of several tests; read-out: Assay a) ATM Cell IC50. As to the method:
The following assays were used to measure the effects of the compounds of the present invention: a) ATM cellular potency assay; b) PI3K cellular potency assay; c) mTOR cellular potency assay; d) ATR cellular potency assay. During the description of the assays, generally: • i. […] IC50 values were calculated using a smart fitting model in Genedata. […] Assay a): ATM Cellular Potency Rationale:
Most ATM molecules in the cell are rapidly phosphorylated on this site after doses of radiation as low as 0.5 Gy, and binding of a phosphospecific antibody is detectable after the introduction of only a few DNA double-strand breaks in the cell.
The rationale of the pATM assay is to identify inhibitors of ATM in cells. HT29 cells are incubated with test compounds for 1 hr prior to X-ray-irradiation. 1 h later the cells are fixed and stained for pATM (Ser1981). The fluorescence is read on the arrayscan imaging platform.
The following morning compounds of Formula (I) in 100% DMSO were added to assay plates by acoustic dispensing. After 1 h incubation at 37° C. and 5% CO2, plates (up to 6 at a time) were irradiated using the X-RAD 320 instrument (PXi) with equivalent to ˜600 cGy. Plates were returned to the incubator for a further 1 h. […] Then 20 μl of 0.1% Triton X100 in PBS was added and incubated for 20 minutes at r.t., to permeabalise cells. Then the plates were washed once with 50 μl/well PBS, using a Biotek EL405 plate washer.
After 1 h incubation at r.t., the plates were washed three times with 50 μl/well PBS, using a Biotek EL405 plate washer, and plates were sealed and kept in PBS at 4° C. until read. Plates were read using an ArrayScan VTI instrument, using an XF53 filter with 10× objective.

Where [5] appears, read: pAKT Ser473, Protocol B (*); read-out: Assay d) mTOR Cell IC50.

The pIC50 is the IC50 on a negative log10 scale, so that one unit is a factor of ten.

pIC50: −log10 of the molar value. Where two headings read alike, the source gives them in different places. Where only a bound is given, the exact number is not on record here.

T2 sequence (Q13535 whole entry): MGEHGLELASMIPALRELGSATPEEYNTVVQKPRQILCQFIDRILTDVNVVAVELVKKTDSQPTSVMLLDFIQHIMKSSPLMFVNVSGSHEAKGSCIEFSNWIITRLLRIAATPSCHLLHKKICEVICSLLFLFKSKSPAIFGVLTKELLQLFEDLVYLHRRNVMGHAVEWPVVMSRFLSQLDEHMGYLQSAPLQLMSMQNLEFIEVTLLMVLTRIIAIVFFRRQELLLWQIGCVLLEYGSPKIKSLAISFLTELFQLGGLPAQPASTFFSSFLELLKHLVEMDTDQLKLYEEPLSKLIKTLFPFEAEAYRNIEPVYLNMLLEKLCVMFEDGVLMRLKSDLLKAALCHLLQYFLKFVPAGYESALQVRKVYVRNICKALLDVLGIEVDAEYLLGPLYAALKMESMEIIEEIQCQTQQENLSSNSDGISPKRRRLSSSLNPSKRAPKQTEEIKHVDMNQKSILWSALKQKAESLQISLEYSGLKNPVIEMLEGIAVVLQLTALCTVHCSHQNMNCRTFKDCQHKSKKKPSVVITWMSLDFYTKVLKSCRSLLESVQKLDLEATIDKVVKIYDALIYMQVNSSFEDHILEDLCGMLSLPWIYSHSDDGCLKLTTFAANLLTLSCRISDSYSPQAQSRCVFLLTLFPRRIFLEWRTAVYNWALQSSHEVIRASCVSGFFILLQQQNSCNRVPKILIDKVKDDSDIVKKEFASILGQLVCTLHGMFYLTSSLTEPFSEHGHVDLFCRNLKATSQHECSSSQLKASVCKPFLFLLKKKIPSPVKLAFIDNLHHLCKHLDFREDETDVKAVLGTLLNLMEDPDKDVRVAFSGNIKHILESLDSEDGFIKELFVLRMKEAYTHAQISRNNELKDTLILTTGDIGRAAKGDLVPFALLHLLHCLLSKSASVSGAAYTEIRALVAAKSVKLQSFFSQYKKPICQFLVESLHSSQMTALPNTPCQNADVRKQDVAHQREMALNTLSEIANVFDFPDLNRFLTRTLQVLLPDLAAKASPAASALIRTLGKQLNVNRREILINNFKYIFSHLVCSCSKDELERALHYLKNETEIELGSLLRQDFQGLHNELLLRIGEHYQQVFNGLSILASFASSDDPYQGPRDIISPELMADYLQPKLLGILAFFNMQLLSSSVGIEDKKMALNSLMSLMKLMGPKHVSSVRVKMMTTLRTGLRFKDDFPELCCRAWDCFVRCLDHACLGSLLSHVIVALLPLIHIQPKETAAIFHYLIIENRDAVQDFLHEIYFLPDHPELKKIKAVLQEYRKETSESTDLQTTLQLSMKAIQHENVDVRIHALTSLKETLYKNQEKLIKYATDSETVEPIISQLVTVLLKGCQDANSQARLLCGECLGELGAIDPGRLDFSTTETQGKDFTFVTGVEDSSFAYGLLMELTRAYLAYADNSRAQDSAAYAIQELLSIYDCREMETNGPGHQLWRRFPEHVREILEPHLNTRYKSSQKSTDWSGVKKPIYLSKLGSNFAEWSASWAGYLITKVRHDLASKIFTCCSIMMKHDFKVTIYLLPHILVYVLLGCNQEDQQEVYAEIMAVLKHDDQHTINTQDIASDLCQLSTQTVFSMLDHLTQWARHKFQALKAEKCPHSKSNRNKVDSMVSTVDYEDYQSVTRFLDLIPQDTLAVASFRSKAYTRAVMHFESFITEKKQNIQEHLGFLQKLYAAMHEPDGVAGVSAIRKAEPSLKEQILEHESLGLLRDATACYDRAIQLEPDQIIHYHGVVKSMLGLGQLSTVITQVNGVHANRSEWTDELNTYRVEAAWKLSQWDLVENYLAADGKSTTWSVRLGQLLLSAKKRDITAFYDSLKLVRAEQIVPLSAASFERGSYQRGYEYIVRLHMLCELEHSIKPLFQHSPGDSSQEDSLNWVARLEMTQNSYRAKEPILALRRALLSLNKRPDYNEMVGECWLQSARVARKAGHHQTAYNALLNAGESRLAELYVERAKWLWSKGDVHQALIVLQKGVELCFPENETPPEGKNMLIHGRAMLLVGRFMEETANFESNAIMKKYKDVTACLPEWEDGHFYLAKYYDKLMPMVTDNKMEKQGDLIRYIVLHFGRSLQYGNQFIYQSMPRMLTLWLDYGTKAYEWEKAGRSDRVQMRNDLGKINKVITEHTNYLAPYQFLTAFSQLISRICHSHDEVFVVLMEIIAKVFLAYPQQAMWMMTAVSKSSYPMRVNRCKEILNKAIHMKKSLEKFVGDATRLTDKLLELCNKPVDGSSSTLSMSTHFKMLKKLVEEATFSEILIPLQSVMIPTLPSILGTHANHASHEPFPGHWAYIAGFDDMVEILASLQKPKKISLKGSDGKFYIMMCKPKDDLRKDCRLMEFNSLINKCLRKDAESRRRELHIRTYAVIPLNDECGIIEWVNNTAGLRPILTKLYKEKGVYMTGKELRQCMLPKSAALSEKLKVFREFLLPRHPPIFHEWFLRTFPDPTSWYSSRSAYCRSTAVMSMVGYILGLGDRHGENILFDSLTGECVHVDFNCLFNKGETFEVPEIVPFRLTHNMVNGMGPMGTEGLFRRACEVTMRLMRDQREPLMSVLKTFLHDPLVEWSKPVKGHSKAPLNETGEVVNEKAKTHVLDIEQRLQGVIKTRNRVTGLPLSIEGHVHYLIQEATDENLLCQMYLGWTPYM
T2 sequence (Q8WXE1 whole entry partner): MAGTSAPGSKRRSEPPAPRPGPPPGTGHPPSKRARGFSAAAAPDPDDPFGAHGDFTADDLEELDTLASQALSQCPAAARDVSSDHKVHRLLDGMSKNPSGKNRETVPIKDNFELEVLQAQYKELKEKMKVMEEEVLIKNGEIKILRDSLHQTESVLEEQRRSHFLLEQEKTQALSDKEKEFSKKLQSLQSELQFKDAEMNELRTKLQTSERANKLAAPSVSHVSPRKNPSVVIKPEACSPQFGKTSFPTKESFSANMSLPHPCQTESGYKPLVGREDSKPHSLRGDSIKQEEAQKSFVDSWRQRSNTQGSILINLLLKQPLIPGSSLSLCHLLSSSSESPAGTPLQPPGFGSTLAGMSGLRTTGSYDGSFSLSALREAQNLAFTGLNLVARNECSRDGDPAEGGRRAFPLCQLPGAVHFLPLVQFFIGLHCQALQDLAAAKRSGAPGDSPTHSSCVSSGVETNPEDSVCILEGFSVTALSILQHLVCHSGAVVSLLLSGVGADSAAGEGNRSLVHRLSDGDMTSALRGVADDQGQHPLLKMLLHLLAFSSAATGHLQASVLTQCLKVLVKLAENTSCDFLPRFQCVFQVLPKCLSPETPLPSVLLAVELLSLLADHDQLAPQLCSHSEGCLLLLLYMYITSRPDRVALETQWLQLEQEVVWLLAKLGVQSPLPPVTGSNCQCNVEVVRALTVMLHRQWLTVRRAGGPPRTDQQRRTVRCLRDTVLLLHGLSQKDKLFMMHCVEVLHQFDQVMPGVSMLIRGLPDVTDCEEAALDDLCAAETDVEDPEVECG
Chain of PI3K-α (P42336 whole entry): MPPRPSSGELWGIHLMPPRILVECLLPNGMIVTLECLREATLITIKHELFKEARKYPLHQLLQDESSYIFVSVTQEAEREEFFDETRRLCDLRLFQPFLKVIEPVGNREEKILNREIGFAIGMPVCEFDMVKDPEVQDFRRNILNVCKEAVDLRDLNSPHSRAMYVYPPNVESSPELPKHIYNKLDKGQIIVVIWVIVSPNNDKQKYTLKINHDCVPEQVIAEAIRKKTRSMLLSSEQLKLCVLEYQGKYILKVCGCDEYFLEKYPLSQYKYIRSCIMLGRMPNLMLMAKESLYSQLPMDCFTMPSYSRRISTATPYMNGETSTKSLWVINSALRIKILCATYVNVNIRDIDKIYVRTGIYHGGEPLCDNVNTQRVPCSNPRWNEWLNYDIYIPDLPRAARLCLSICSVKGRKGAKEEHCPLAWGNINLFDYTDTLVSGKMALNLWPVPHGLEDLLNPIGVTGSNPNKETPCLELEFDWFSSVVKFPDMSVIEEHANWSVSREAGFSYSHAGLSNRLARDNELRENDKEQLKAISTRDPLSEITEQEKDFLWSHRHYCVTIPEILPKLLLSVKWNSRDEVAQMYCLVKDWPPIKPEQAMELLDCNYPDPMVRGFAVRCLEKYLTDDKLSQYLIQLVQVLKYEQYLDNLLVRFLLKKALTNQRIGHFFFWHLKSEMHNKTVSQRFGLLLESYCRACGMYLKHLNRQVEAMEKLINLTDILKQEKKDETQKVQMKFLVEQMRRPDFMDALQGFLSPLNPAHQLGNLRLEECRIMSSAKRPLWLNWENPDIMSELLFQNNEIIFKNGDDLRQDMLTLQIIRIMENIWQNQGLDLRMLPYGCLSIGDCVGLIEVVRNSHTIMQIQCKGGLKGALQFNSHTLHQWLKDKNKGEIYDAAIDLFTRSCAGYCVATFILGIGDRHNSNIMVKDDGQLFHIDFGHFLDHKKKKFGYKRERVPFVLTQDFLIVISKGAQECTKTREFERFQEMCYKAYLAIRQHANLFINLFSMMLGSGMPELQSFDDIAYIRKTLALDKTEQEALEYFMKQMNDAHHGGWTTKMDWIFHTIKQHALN

For `CC(C)n1c(=O)n(C)c2cnc3cc(F)c(-c4ccc(OCCCN(C)C)nc4)cc3c21` [Example 1, 8-[6-[3-(Dimethylamino)propoxy]-3-pyridyl]-7-fluoro-1-isopropyl-3-methyl-imidazo[4,5-c]quinolin-2-one], the pIC50 in assay [1] (setting [5]) is below 4.52; in assay [2], 4.87; in assay [3], below 4.52.
Take `CC(C)n1c(=O)n(C)c2cnc3cc(F)c(-c4ccc(OCCCN(C)C)nc4F)cc3c21` [Example 11, 8-[6-[3-(dimethylamino)propoxy]-2-fluoro-3-pyridyl]-7-fluoro-1-isopropyl-3-methyl-imidazo[4,5-c]quinolin-2-one]: the pIC50 is 4.63 in assay [1] (pAKT Ser473, Protocol A (§); read-out: Assay d) mTOR Cell IC50); below 4.52 in assay [3]; 8.64 in assay [4].
With `CC(C)n1c(=O)n(C)c2cnc3ccc(-c4ccc(OCCCN5CCC5)nc4F)cc3c21` [Example 15, 8-[6-[3-(azetidin-1-yl)propoxy]-2-fluoro-3-pyridyl]-1-isopropyl-3-methyl-imidazo[4,5-c]quinolin-2-one], the figures for the pIC50 in assay [1] (setting [5]), in assay [3] and in assay [4] were below 6.52, below 4.52 and 8.67, respectively.
For `Cn1c(=O)n(C2CC2)c2c3cc(-c4cnc5[nH]ccc5c4)ccc3ncc21` [CN102399218A Compound 62, reference compound], the figures for the pIC50 in assay [3] and in assay [4] were 7.26 and 6.87, respectively.
As to `CC(C)n1c(=O)[nH]c2cnc3cc(F)c(-c4ccc(OCCCN(C)C)nc4)cc3c21` [Example 17, 8-[6-[3-(Dimethylamino)propoxy]-3-pyridyl]-7-fluoro-1-isopropyl-3H-imidazo[4,5-c]quinolin-2-one], the negative-log IC50 (pIC50) is below 5.00 in assay [1] (setting [5]), below 4.52 in assay [3] and 8.34 in assay [4].
With `CC(C)n1c(=O)n(C)c2cnc3ccc(-c4ccc(OCCCN5CCCCC5)nc4)cc3c21` [Example 5, 1-Isopropyl-3-methyl-8-[6-[3-(l-piperidyl)propoxy]-3-pyridyl]imidazo[4,5-c]quinolin-2-one], the results for the pIC50 in assay [1] (setting [5]) and in assay [2] were 5.17 and 5.91, respectively.
